Source: the NIST ThermoML archive (doi:10.1016/j.jct.2004.01.006)
Several values for one entry are separate records, joined by “and”; a condition that tells them apart may be missing. Equal entries are not always repeated.

Experiment: molar heat capacity at constant pressure
Conditions: 101.33 kPa

O=Cc1ccc(Cl)cc1Cl [2,4-dichlorobenzaldehyde]
Conditions | molar heat capacity at constant pressure
79.17 K, Crystal | 71.3 J/K/mol
80 K, Crystal | 71.33 J/K/mol
81.36 K, Crystal | 72.02 J/K/mol
83.11 K, Crystal | 72.63 J/K/mol
85 K, Crystal | 73.98 J/K/mol
85.3 K, Crystal | 73.72 J/K/mol
87.49 K, Crystal | 74.91 J/K/mol
89.6 K, Crystal | 76.29 J/K/mol
90 K, Crystal | 76.75 J/K/mol
91.66 K, Crystal | 77.86 J/K/mol
93.69 K, Crystal | 79.02 J/K/mol
95 K, Crystal | 79.6 J/K/mol
95.68 K, Crystal | 80.2 J/K/mol
97.64 K, Crystal | 81.37 J/K/mol
99.56 K, Crystal | 82.67 J/K/mol
100 K, Crystal | 82.48 J/K/mol
101.45 K, Crystal | 83.56 J/K/mol
103.32 K, Crystal | 84.39 J/K/mol
105 K, Crystal | 85.38 J/K/mol
105.16 K, Crystal | 85.43 J/K/mol
106.97 K, Crystal | 86.65 J/K/mol
108.76 K, Crystal | 87.94 J/K/mol
110 K, Crystal | 88.26 J/K/mol
110.53 K, Crystal | 88.83 J/K/mol
112.28 K, Crystal | 89.53 J/K/mol
114 K, Crystal | 90.58 J/K/mol
115 K, Crystal | 91.11 J/K/mol
115.71 K, Crystal | 91.48 J/K/mol
117.4 K, Crystal | 92.47 J/K/mol
119.07 K, Crystal | 93.42 J/K/mol
120 K, Crystal | 93.92 J/K/mol
120.73 K, Crystal | 94.06 J/K/mol
122.36 K, Crystal | 94.81 J/K/mol
123.99 K, Crystal | 95.87 J/K/mol
125 K, Crystal | 96.69 J/K/mol
125.6 K, Crystal | 96.98 J/K/mol
127.19 K, Crystal | 97.8 J/K/mol
128.78 K, Crystal | 98.46 J/K/mol
130 K, Crystal | 99.4 J/K/mol
130.34 K, Crystal | 99.55 J/K/mol
131.9 K, Crystal | 100.68 J/K/mol
133.44 K, Crystal | 101.08 J/K/mol
134.97 K, Crystal | 101.62 J/K/mol
135 K, Crystal | 102.07 J/K/mol
136.49 K, Crystal | 102.52 J/K/mol
138 K, Crystal | 103.61 J/K/mol
139.5 K, Crystal | 104.14 J/K/mol
140 K, Crystal | 104.7 J/K/mol
140.99 K, Crystal | 104.87 J/K/mol
142.47 K, Crystal | 105.48 J/K/mol
143.93 K, Crystal | 106.66 J/K/mol
145 K, Crystal | 107.29 J/K/mol
145.39 K, Crystal | 107.75 J/K/mol
146.84 K, Crystal | 108.26 J/K/mol
148.28 K, Crystal | 109.04 J/K/mol
149.71 K, Crystal | 109.83 J/K/mol
150 K, Crystal | 109.85 J/K/mol
151.13 K, Crystal | 111.12 J/K/mol
152.54 K, Crystal | 111.74 J/K/mol
153.94 K, Crystal | 112.08 J/K/mol
155 K, Crystal | 112.39 J/K/mol
155.34 K, Crystal | 112.93 J/K/mol
157.51 K, Crystal | 113.86 J/K/mol
160 K, Crystal | 114.92 J/K/mol
160.42 K, Crystal | 115.39 J/K/mol
163.32 K, Crystal | 116.39 J/K/mol
165 K, Crystal | 117.44 J/K/mol
166.18 K, Crystal | 117.94 J/K/mol
169.01 K, Crystal | 119.36 J/K/mol
170 K, Crystal | 119.97 J/K/mol
171.81 K, Crystal | 121.11 J/K/mol
174.59 K, Crystal | 122.69 J/K/mol
175 K, Crystal | 122.52 J/K/mol
177.33 K, Crystal | 124.06 J/K/mol
180 K, Crystal | 125.09 J/K/mol
180.05 K, Crystal | 125.43 J/K/mol
182.75 K, Crystal | 126.44 J/K/mol
185 K, Crystal | 127.68 J/K/mol
185.43 K, Crystal | 127.77 J/K/mol
190 K, Crystal | 130.3 J/K/mol
190.71 K, Crystal | 130.68 J/K/mol
193.31 K, Crystal | 131.82 J/K/mol
195 K, Crystal | 133 J/K/mol
195.91 K, Crystal | 133.03 J/K/mol
198.41 K, Crystal | 134.61 J/K/mol
200 K, Crystal | 135.65 J/K/mol
200.76 K, Crystal | 135.6 J/K/mol
203.12 K, Crystal | 136.47 J/K/mol
205 K, Crystal | 138.37 J/K/mol
205.61 K, Crystal | 137.67 J/K/mol
208.11 K, Crystal | 139.14 J/K/mol
210 K, Crystal | 141.12 J/K/mol
210.61 K, Crystal | 140.62 J/K/mol
213.05 K, Crystal | 142.39 J/K/mol
215 K, Crystal | 143.89 J/K/mol
215.46 K, Crystal | 143.66 J/K/mol
217.88 K, Crystal | 145.35 J/K/mol
220 K, Crystal | 146.69 J/K/mol
220.3 K, Crystal | 147.01 J/K/mol
222.73 K, Crystal | 148.63 J/K/mol
225 K, Crystal | 149.5 J/K/mol
225.15 K, Crystal | 150.44 J/K/mol
227.5 K, Crystal | 152.1 J/K/mol
229.92 K, Crystal | 153.24 J/K/mol
230 K, Crystal | 152.31 J/K/mol
232.35 K, Crystal | 154.92 J/K/mol
234.92 K, Crystal | 156.38 J/K/mol
235 K, Crystal | 155.12 J/K/mol
237.8 K, Crystal | 157.76 J/K/mol
240 K, Crystal | 157.9 J/K/mol
240.46 K, Crystal | 159.08 J/K/mol
242.88 K, Crystal | 160.14 J/K/mol
245 K, Crystal | 160.64 J/K/mol
245.08 K, Crystal | 161.43 J/K/mol
247.12 K, Crystal | 162.34 J/K/mol
249.24 K, Crystal | 163.27 J/K/mol
250 K, Crystal | 163.39 J/K/mol
251.44 K, Crystal | 164.55 J/K/mol
253.56 K, Crystal | 165.45 J/K/mol
255 K, Crystal | 166.07 J/K/mol
255.68 K, Crystal | 166.2 J/K/mol
257.73 K, Crystal | 166.92 J/K/mol
259.85 K, Crystal | 167.67 J/K/mol
260 K, Crystal | 168.69 J/K/mol
261.89 K, Crystal | 168.77 J/K/mol
264.01 K, Crystal | 169.61 J/K/mol
265 K, Crystal | 171.25 J/K/mol
266.06 K, Crystal | 170.55 J/K/mol
268.03 K, Crystal | 171.61 J/K/mol
270 K, Crystal | 173.73 J/K/mol
270.08 K, Crystal | 172.38 J/K/mol
272.05 K, Crystal | 173.75 J/K/mol
274.01 K, Crystal | 174.95 J/K/mol
275 K, Crystal | 176.14 J/K/mol
275.99 K, Crystal | 175.77 J/K/mol
277.95 K, Crystal | 176.86 J/K/mol
279.85 K, Crystal | 177.84 J/K/mol
280 K, Crystal | 178.48 J/K/mol
281.74 K, Crystal | 178.91 J/K/mol
283.64 K, Crystal | 179.72 J/K/mol
285 K, Crystal | 180.75 J/K/mol
285.53 K, Crystal | 180.86 J/K/mol
287.42 K, Crystal | 181.6 J/K/mol
289.24 K, Crystal | 182.74 J/K/mol
290 K, Crystal | 182.93 J/K/mol
291.06 K, Crystal | 183.73 J/K/mol
292.88 K, Crystal | 184.79 J/K/mol
294.62 K, Crystal | 185.72 J/K/mol
295 K, Crystal | 185.12 J/K/mol
296.36 K, Crystal | 186.66 J/K/mol
298.03 K, Crystal | 187.45 J/K/mol
298.15 K, Crystal | 186.47 J/K/mol
299.7 K, Crystal | 187.95 J/K/mol
301.36 K, Crystal | 188.77 J/K/mol
303.86 K, Crystal | 189.94 J/K/mol
305 K, Crystal | 189.4 J/K/mol
306.12 K, Crystal | 191.07 J/K/mol
308.39 K, Crystal | 191.8 J/K/mol
310 K, Crystal | 191.58 J/K/mol
310.67 K, Crystal | 192.53 J/K/mol
312.95 K, Crystal | 193.73 J/K/mol
315 K, Crystal | 193.86 J/K/mol
319.7 K, Crystal | 196.52 J/K/mol
320 K, Crystal | 196.27 J/K/mol
321.89 K, Crystal | 197.35 J/K/mol
324.09 K, Crystal | 198.21 J/K/mol
325 K, Crystal | 198.9 J/K/mol
326.21 K, Crystal | 199.12 J/K/mol
328.41 K, Crystal | 199.91 J/K/mol
330 K, Crystal | 201.83 J/K/mol
330.53 K, Crystal | 200.78 J/K/mol
332.65 K, Crystal | 201.79 J/K/mol
334.67 K, Crystal | 202.59 J/K/mol
335 K, Crystal | 205.15 J/K/mol
336.74 K, Crystal | 203.39 J/K/mol
338.77 K, Crystal | 205.71 J/K/mol
340 K, Crystal | 208.96 J/K/mol
350 K, Liquid | 208.08 J/K/mol
350.08 K, Liquid | 208.1 J/K/mol
351.82 K, Liquid | 208.76 J/K/mol
353.56 K, Liquid | 209.27 J/K/mol
355 K, Liquid | 209.85 J/K/mol
355.74 K, Liquid | 210.16 J/K/mol
357.14 K, Liquid | 210.51 J/K/mol
358.64 K, Liquid | 210.8 J/K/mol
360 K, Liquid | 211.16 J/K/mol
361.51 K, Liquid | 211.51 J/K/mol
362.95 K, Liquid | 211.74 J/K/mol
364.32 K, Liquid | 212.33 J/K/mol
365 K, Liquid | 212.44 J/K/mol
365.61 K, Liquid | 212.74 J/K/mol
366.82 K, Liquid | 213.06 J/K/mol
367.95 K, Liquid | 213.48 J/K/mol
369.01 K, Liquid | 213.84 J/K/mol
369.7 K, Liquid | 214.36 J/K/mol
370 K, Liquid | 214.39 J/K/mol and 214.31 J/K/mol
370.76 K, Liquid | 214.45 J/K/mol
371.51 K, Liquid | 214.51 J/K/mol and 214.66 J/K/mol
